What was measured:
primary human T-cells = assay: IL2 secretion measurements in CD3-stimulated T-cells; assay type: cell-based; conditions: Homo sapiens, T-cell, 24 h, CD3 condition; for Emax: IL2 after 24 hours, 20 μM reference compound A1 = 100%, read-out: Emax IL2 (% activation); for EC50: IL2 secretion after 24 hours, read-out: Tcell IL2 CD3 EC50
Description: As readouts for T-cell activation, IL2 secretion after 24 hours and proliferation after 5 days was measured. Increases in IL2 secretion and proliferation upon compound treatment were assessed as the % of the maximum of reference compound A1. WO 2016/139181 discloses reference compound A1 as example 70. As a counter screen and to make sure that no unwanted TCR-independent activation was triggered, PBS conditions were run for all compounds.
Expanded primary human T-cells were thawed and cultured in RPMI 1640 (Gibco, #61870-010)+5% human serum (HS, Sigma, #H3667)+1 mM Sodium Pyruvate (Gibco, #11360-039)+50 μM 2-mercaptoethanol (Gibco, #31350-010) and 1× Pen-Strep (Life Technologies, #15140122) medium at density of 2 Mio/ml for 3 hours in 5% CO2, 37° C. and 95% humidity. For coating of plates, […] or PBS++ with CD3 antibody (concentration depending on donor and determined by CD3 titrations) was added 100 μl/well to Poly-D Lysine coated 96-well plates. Plates were sealed and incubated at room temperature for 3 hours on a table-top rocking platform. After incubation, plates were washed once with PBS−− and filled with 40 μl/well culture medium only. Compounds were then added (see next section) to medium only plates. After 3 hours of culturing the T-cells, cells were filtered through a cell strainer (Miltenyi Biotech, #130-041-407), counted again and concentration was adjusted to 1.25 Mio/ml.
Cells were then seeded 80 μl/well to the 40 μl/well including dispensed compounds according to plate layout. By adding cells, compounds were further diluted 1:3, and resulting in 100k cells/120 µl/well. After 24 hours 40 μl of supernatant was collected carefully from the top while not disturbing the cells and transferred into a round bottom 96 well plate. Collected and frozen supernatant was used for detection of IL2 using the IL-2 Human ProQuantum Immunoassay Kit (Invitrogen) or using the Human IL-2 ELISA Kit (Thermo Fisher).
Compound Treatment Compounds were added in a 5 or 6 pt dose response with the Tecan D300e Digital Dispenser, all conditions 3 times more concentrated than the end-concentration, since cells are added afterwards (80p1 cells to 40p1 prepared medium with treatment). The DR was starting at 20 μM or 10 μM final top concentration and a dilution factor of 3.333. The positive control was the reference compound A1 that was added in a dose response as well, additionally to 3 wells of only 20 μM representing the positive stimulator control. All wells were normalized with DMSO to a final concentration of 0.6% (0.2% end-concentration).
The immunoassay is done following the manufacturer's manual (Invitrogen, #A35603).
Additional information: For the immunoassay, MicroAmp™ EnduraPlate™ Optical 384-Well plates are used. Frozen supernatant is thawed and centrifuged for 5 minutes at 1000×g, both steps at 4° C. After centrifugation, required sample amount is taken from the top, and in a separate LightCycler V-bottom plate (working plate) diluted with assay dilution buffer, dilution factor depending on the PBS or CD3 condition but at least 1:3. IL-2 standard and blanks are prepared in the same V-bottom plate, standard with a range of 0.0128-5000 pg/ml (extended version). After preparation, 5 μl of sample dilutions or standard/blanks are transferred to the optical 384-well plate (assay plate) and the 10 μl reaction protocol is being followed. For measurement, the QuantStudio 12K Flex system is used. Raw data is extracted and IL-2 concentrations are calculated with the Thermo Fisher online app (apps.thermofisher.com/apps/proquantum).
ELISA is done following the manufacturer's manual (Thermo Fisher Scientific, #88-7025-88). Additional information: For the ELISA Nunc MaxiSorp 96 well plates are used. Frozen supernatant is thawed and centrifuged for 5 minutes at 1000×g, both steps at 4° C. […]

DGKalpha = DGKalpha (Homo sapiens, UniProt P23743); assay: In vitro DGK inhibition assay (ADP-Glo, liposomes), DGKalpha; assay type: biochemical; set-up: hDGKalpha(1-735)-N-His; His (N); made in house; host or cells: Sf21 insect cells (baculovirus); conditions: 4 nM DGK α, 25 μM ATP, 125 uM DLG in liposomes, 1 hour reaction
Sequence of DGKalpha (P23743 whole entry): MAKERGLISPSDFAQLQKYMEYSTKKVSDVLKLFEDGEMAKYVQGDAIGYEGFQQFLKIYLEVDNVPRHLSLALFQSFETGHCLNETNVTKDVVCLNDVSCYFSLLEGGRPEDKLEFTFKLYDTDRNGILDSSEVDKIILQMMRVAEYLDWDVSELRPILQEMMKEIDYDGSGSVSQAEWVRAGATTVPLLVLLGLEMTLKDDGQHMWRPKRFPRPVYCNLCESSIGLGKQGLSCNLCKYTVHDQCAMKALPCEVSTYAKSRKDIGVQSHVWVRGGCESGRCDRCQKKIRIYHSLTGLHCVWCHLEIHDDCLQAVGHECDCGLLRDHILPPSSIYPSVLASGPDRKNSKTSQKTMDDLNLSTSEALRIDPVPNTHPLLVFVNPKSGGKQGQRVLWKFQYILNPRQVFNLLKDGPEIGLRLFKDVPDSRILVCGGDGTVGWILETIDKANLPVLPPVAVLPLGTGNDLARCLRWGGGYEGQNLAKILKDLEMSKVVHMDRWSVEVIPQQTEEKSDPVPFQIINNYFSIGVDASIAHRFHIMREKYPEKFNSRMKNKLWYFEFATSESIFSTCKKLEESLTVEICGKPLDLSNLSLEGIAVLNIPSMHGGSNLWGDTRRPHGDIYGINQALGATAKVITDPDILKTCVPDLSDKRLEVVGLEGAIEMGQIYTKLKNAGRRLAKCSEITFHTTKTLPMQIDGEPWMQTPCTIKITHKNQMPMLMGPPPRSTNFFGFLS
Description: DGK α and ζ kinases use ATP to phosphorylate the substrate 1,2-dilauroyl-sn-glycerol (DLG, incorporated in the liposomes). ATP is converted to ADP as a result of this enzymatic reaction. After the kinase reaction, an ATP-depletion reagent is added to terminate the kinase reaction and deplete any remaining ATP, leaving only ADP. Second, a detection reagent is added to simultaneously convert ADP to ATP and allow the newly synthesized ATP to be converted to light using a coupled luciferase/luciferin reaction.
Full length DGKA and Z were expressed in Sf21 insect cells by infecting the cells with the baculovirus stock at MOI of 2. Purification of both enzymes was performed as previously described by Takahashi et al., PeerJ, 2018 (Takahashi, D.; Sakane, F. Expression and purification of human diacylglycerol kinase alpha from baculovirus-infected insect cells for structural studies. PeerJ 2018, 6, No. e5449).
A concentrated liposome solution was prepared in assay buffer without DTT and BSA: 2 mM of DLG in 21 mM of total liposome (2 mM DLG/8 mM PS/11 mM PC). The reaction mixtures contain the assay buffer with a final DLG concentration of 125 uM ATP concentrations of 25 μM (for DGKA assay) or 50 μM (for DGKZ assay). The reactions were started by addition of DGK a and (kinases at 4 nM and 2 nM final concentrations, respectively. After 1 hour reaction, the amount of ADP formed was detected with the ADP-Glo kinase assay (Promega) according to the manufacturer instructions. Compounds were added in 11-points dose response, starting at […], 1:3 dilutions, with a final DMSO concentration of 2%. The multidrop combi was used as a liquid handler and luminescence was read with 0.5 s by the envision reader (PE).

Row | EC50 (primary human T-cells) [nM] | IC50 (DGKalpha) [nM] | Compound | Emax (primary human T-cells) [%]
1 | 9170 | 10700 | CS(=O)(=O)C1(c2nnc(-c3ccc4c(c3)N(Cc3ccc(Oc5ccccc5)cc3)C(=O)[C@@H](N)CS4(=O)=O)o2)CC1 [Example 66, (3R)-3-amino-7-[5-(1-methylsulfonylcyclopropyl)-1,3,4-oxadiazol-2-yl]-1,1-dioxo-5-[(4-phenoxyphenyl)methyl]-2,3-dihydro-1λ6,5-benzothiazepin-4-one] | 52
2 | 2110 | 3120 | CC(C)(c1nnc(-c2ccc3c(c2)N(Cc2ccc(Oc4ccccc4)cc2)C(=O)[C@@H](N)CS3(=O)=O)o1)S(C)(=O)=O [Example 5, (3R)-3-amino-7-[5-(1-methyl-1-methylsulfonyl-ethyl)-1,3,4-oxadiazol-2-yl]-1,1-dioxo-5-[(4-phenoxyphenyl)methyl]-2,3-dihydro-1λ6,5-benzothiazepin-4-one] | 118
3 | 2200 | > 62500 | CS(=O)(=O)C1(c2nnc(-c3ccc4c(c3)N(Cc3ccc(Oc5ccccc5)cc3)C(=O)[C@@H](N)CS4(=O)=O)o2)CCC1 [Example 68, (3R)-3-amino-7-[5-(1-methylsulfonylcyclobutyl)-1,3,4-oxadiazol-2-yl]-1,1-dioxo-5-[(4-phenoxyphenyl)methyl]-2,3-dihydro-1λ6,5-benzothiazepin-4-one] | 41
4 | 1020 | 669 | CC(C)(c1nnc(-c2ccc3c(c2)N(Cc2ccc(OCc4ccc(F)cc4)cc2)C(=O)[C@@H](N)CS3(=O)=O)o1)S(C)(=O)=O [Example 12, (3R)-3-amino-5-[[4-[(4-fluorophenyl)methoxy]phenyl]methyl]-7-[5-(1-methyl-1-methylsulfonyl-ethyl)-1,3,4-oxadiazol-2-yl]-1,1-dioxo-2,3-dihydro-1λ6,5-benzothiazepin-4-one] | 173
5 | 424 | 3230 | CC(C)(c1nnc(-c2ccc3c(c2)N(Cc2ccc(Oc4cccc(C(F)(F)F)c4)cc2)C(=O)[C@@H](N)CS3(=O)=O)o1)S(C)(=O)=O [Example 38] | 155
6 | 1180 | 3800 | CC(C)(c1nnc(-c2ccc3c(c2)N(Cc2ccc(Oc4cccc(Br)c4)cc2)C(=O)[C@@H](N)CS3(=O)=O)o1)S(C)(=O)=O [Example 60, (3R)-3-amino-5-[[4-(3-bromophenoxy)phenyl]methyl]-7-[5-(1-methyl-1-methylsulfonyl-ethyl)-1,3,4-oxadiazol-2-yl]-1,1-dioxo-2,3-dihydro-1λ6,5-benzothiazepin-4-one] | 106
7 | 8700 | 1810 | CCC(CC)Oc1ccc(CN2C(=O)[C@@H](N)CS(=O)(=O)c3ccc(-c4nnc(C(C)(C)S(C)(=O)=O)o4)cc32)cc1 [Example 19, (3R)-3-amino-5-[[4-(1-ethylpropoxy)phenyl]methyl]-7-[5-(1-methyl-1-methylsulfonyl-ethyl)-1,3,4-oxadiazol-2-yl]-1,1-dioxo-2,3-dihydro-1λ6,5-benzothiazepin-4-one] | 54
8 | 3770 | 2020 | CC(C)(c1nnc(-c2ccc3c(c2)N(Cc2ccc(OCc4ccccc4F)cc2)C(=O)[C@@H](N)CS3(=O)=O)o1)S(C)(=O)=O [Example 14, (3R)-3-amino-5-[[4-[(2-fluorophenyl)methoxy]phenyl]methyl]-7-[5-(1-methyl-1-methylsulfonyl-ethyl)-1,3,4-oxadiazol-2-yl]-1,1-dioxo-2,3-dihydro-1λ6,5-benzothiazepin-4-one] | 101
9 | 637 | 1590 | CC(C)(c1nnc(-c2cc3c(cc2F)S(=O)(=O)C[C@H](N)C(=O)N3Cc2ccc(-c3ccc(C(F)(F)F)nc3)cc2)o1)S(C)(=O)=O [Example 36] | 61
10 | 5000 | 1380 | CC(C)(c1nnc(-c2ccc3c(c2)N(Cc2ccc(-c4ccc(C#N)cc4)cc2)C(=O)[C@@H](N)CS3(=O)=O)o1)S(C)(=O)=O [Example 20, 4-[4-[[(3R)-3-amino-7-[5-(1-methyl-1-methylsulfonyl-ethyl)-1,3,4-oxadiazol-2-yl]-1,1,4-trioxo-2,3-dihydro-1λ6,5-benzothiazepin-5-yl]methyl]phenyl]benzonitrile] | 77
11 | 1760 | > 62500 | CC(C)(c1nnc(-c2ccc3c(c2)N(Cc2ccc(-c4ccc(C(F)(F)F)cc4)cc2)C(=O)[C@@H](N)CS3(=O)=O)o1)S(=O)(=O)N1CCCC1 [Example 67, (3R)-3-amino-7-[5-(1-methyl-1-pyrrolidin-1-ylsulfonyl-ethyl)-1,3,4-oxadiazol-2-yl]-1,1-dioxo-5-[[4-[4-(trifluoromethyl)phenyl]phenyl]methyl]-2,3-dihydro-1λ6,5-benzothiazepin-4-one] | 71
12 | 431 | 534 | COc1ccc(-c2ccc(CN3C(=O)[C@@H](N)CS(=O)(=O)c4cc(F)c(-c5nnc(C(C)(C)S(C)(=O)=O)o5)cc43)cc2)cc1 [Example 29, (3R)-3-amino-8-fluoro-5-[[4-(4-methoxyphenyl)phenyl]methyl]-7-[5-(1-methyl-1-methylsulfonyl-ethyl)-1,3,4-oxadiazol-2-yl]-1,1-dioxo-2,3-dihydro-1λ6,5-benzothiazepin-4-one] | 284
13 | 1040 | 1170 | CS(=O)(=O)Cn1nnc(-c2cc3c(cc2F)S(=O)(=O)C[C@H](N)C(=O)N3Cc2ccc(Oc3ccccc3)cc2)n1 [Example 54, (3R)-3-amino-8-fluoro-7-[2-(methylsulfonylmethyl)tetrazol-5-yl]-1,1-dioxo-5-[(4-phenoxyphenyl)methyl]-2,3-dihydro-1λ6,5-benzothiazepin-4-one] | 132
14 | 2800 | 2300 | CC(C)(c1nnc(-c2ccc3c(c2)N(Cc2ccc(SC(F)(F)F)cc2)C(=O)[C@@H](N)CS3(=O)=O)o1)S(C)(=O)=O [Example 7] | 94

Source: US20260035364A1, “BICYCLIC TETRAHYDROTHIAZEPINE DERIVATIVES” (Hoffmann-La Roche Inc., priority 2022, published 2026)
